{"source": "patent US20240041838A1", "about": "“METHODS AND COMPOSITIONS FOR INHIBITION OF NEUTROPHIL RECRUITMENT IN MYCOCARDIAL ISCHEMIA-REPERFUSION INJURY” (University of Connecticut, priority 2022, published 2024)", "test_system": "Rac-1 activation in HL60-CXCR2 or HL60 cells", "assay": "Rac-1-GTP pull-down and western blot in HL60 / HL60-CXCR2 cells", "assay_type": "cell-based", "details": "10 μM, RT 1 hour", "description": "The HL60 cells and CXCR2-expressing HL60 cells (HL60-CXCR2)(50) were gifts from Dr. Orion D. Weiner at the University of California San Francisco and Dr. Ann Richmond at the Vanderbilt University School of Medicine, respectively. HL60-CXCR2 cells were selected with G418 ([…]) to maintain CXCR2 expression. Cells were maintained in culture medium (RPMI-1640, 10% FBS, 100 μg·mL^−1 penicillin, 100 μg·mL^−1 streptomycin, and 250 ng·mL^−1 amphotericin B) at 37° C. and 5% CO2. In most experiments, cells were differentiated with 1.3% DMSO for 7 days before assays. Cells were checked monthly for mycoplasma infection using the e-Myco plus Mycoplasma PCR Detection Kit.\nAfter washes, cells were resuspended in RPMI-1640 without phenol red (10^7 cells·mL^−1) and incubated with or without stimulators (100 nM fMLP for HL60, 1 μg·mL^−1 IL-8 for HL60-CXCR2) at RT for 1 minute. Cells were lysed by 1:1 addition of 2× Triton X-100 lysis buffer (final concentration: 1% Triton X-100, 50 mM HEPES pH 7.0, 150 mM NaCl, 10% glycerol, 1.5 mM MgCl2, 1 mM EGTA, 1 mM sodium orthovanadate, 1 mM phenylmethylsulfonyl fluoride, plus protease inhibitor mixture—one Pierce protease inhibitor mini-tablet per 5 mL 2× buffer) on ice for 5 minutes. After centrifuging at 16,000×g, 4° C. for 8 minutes, supernatants were saved as protein samples."}
{"compound": "CC(C)(C)C(=O)/C(=C\\c1cccc([N+](=O)[O-])c1)n1cncn1", "note": "[Nexinhib20, 4,4-dimethyl-1-(3-nitrophenyl)-2-(1H-1,2,4-triazol-1-yl)-1-penten-3-one]", "values": [{"measurement": "IL-8-induced increase of Rac-1-GTP", "setting": "HL60-CXCR2 cells, IL-8 1 μg·mL^−1, 1 minute, increase about 80% without drug", "value": "eliminated these increases"}, {"measurement": "fMLP-induced increase of Rac-1-GTP", "setting": "HL60 cells, fMLP 100 nM, 1 minute, increase about 50% without drug", "value": "eliminated these increases"}]}
